{"source": "PubChem BioAssay AID1963980", "about": "(Molecular Pharmacology Branch, DTP, NCI, 2024);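 also: spheroids exposed to agents for seven days before readout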", "test_system": "475296-252-R-J1-PDC spheroid viability", "assay": "Anticancer human tumor 475296-252-R-J1-PDC patient-derived rectal carcinoma cell line growth inhibition [PI3K]", "settings": "spheroids with HUVEC and MSC; for IC50: curve of first compound; for viability, T/C: stronger effect = lower value", "procedure,_shortened": "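Tumor cells were combined with HUVEC and MSCs into spheroids, then dosed with PI3K-inhibitor combinations over half-log ranges capped near clinical Cmax or 10 microM.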", "key": {"[1]": {"settings": "second compound 0.0316 µM, first compound 0.0316 µM"}, "[2]": {"settings": "second compound 0.0316 µM, first compound 0.1 µM"}, "[3]": {"settings": "second compound 0.1 µM, first compound 0.0316 µM"}, "[4]": {"settings": "second compound 0.1 µM, first compound 0.1 µM"}, "[5]": {"settings": "second compound 0.316 µM, first compound 0.0316 µM"}, "[6]": {"settings": "second compound 0.316 µM, first compound 0.1 µM"}, "[7]": {"settings": "second compound 1 µM, first compound 0.0316 µM"}, "[8]": {"settings": "second compound 1 µM, first compound 0.1 µM"}}}
{"smiles": "CC1(C)CCC(CN2CCN(c3ccc(C(=O)NS(=O)(=O)c4ccc(NCC5CCOCC5)c([N+](=O)[O-])c4)c(Oc4cnc5[nH]ccc5c4)c3)CC2)=C(c2ccc(Cl)cc2)C1", "note": "+ COc1c(OCCCN2CCOCC2)ccc2c3n(c(=NC(=O)c4cnc(N)nc4)nc12)CCN3", "values": [{"measurement": "IC50", "setting": "second compound 0.00316 µM", "value": "> 10", "unit": "µM"}, {"measurement": "IC50", "setting": "second compound 0.01 µM", "value": "> 10", "unit": "µM"}, {"measurement": "IC50", "setting": "second compound 0.0316 µM", "value": "> 10", "unit": "µM"}, {"measurement": "IC50", "setting": "second compound 0.1 µM", "value": "> 10", "unit": "µM"}, {"measurement": "IC50", "setting": "second compound 0.316 µM", "value": "> 10", "unit": "µM"}, {"measurement": "IC50", "setting": "second compound 1 µM", "value": 5.62, "unit": "µM"}, {"measurement": "viability, T/C", "setting": "second compound 0.00316 µM, first compound 0.0316 µM", "value": 107, "unit": "%"}, {"measurement": "viability, T/C", "setting": "second compound 0.00316 µM, first compound 0.1 µM", "value": 85.6, "unit": "%"}, {"measurement": "viability, T/C", "setting": "second compound 0.00316 µM, first compound 0.316 µM", "value": 111, "unit": "%"}, {"measurement": "viability, T/C", "setting": "second compound 0.00316 µM, first compound 1 µM", "value": 86.3, "unit": "%"}, {"measurement": "viability, T/C", "setting": "second compound 0.00316 µM, first compound 3.16 µM", "value": 105, "unit": "%"}, {"measurement": "viability, T/C", "setting": "second compound 0.00316 µM, first compound 10 µM", "value": 68.7, "unit": "%"}, {"measurement": "viability, T/C", "setting": "second compound 0.01 µM, first compound 0.0316 µM", "value": 96.2, "unit": "%"}, {"measurement": "viability, T/C", "setting": "second compound 0.01 µM, first compound 0.1 µM", "value": 97.9, "unit": "%"}, {"measurement": "viability, T/C", "setting": "second compound 0.01 µM, first compound 0.316 µM", "value": 87.5, "unit": "%"}, {"measurement": "viability, T/C", "setting": "second compound 0.01 µM, first compound 1 µM", "value": 104, "unit": "%"}, {"measurement": "viability, T/C", "setting": "second compound 0.01 µM, first compound 3.16 µM", "value": 86, "unit": "%"}, {"measurement": "viability, T/C", "setting": "second compound 0.01 µM, first compound 10 µM", "value": 67.3, "unit": "%"}, {"measurement": "viability, T/C", "setting": "[1]", "value": 98.6, "unit": "%"}, {"measurement": "viability, T/C", "setting": "[2]", "value": 85.8, "unit": "%"}, {"measurement": "viability, T/C", "setting": "second compound 0.0316 µM, first compound 0.316 µM", "value": 82.5, "unit": "%"}, {"measurement": "viability, T/C", "setting": "second compound 0.0316 µM, first compound 1 µM", "value": 93.5, "unit": "%"}, {"measurement": "viability, T/C", "setting": "second compound 0.0316 µM, first compound 3.16 µM", "value": 79.8, "unit": "%"}, {"measurement": "viability, T/C", "setting": "second compound 0.0316 µM, first compound 10 µM", "value": 64, "unit": "%"}, {"measurement": "viability, T/C", "setting": "[3]", "value": 91.8, "unit": "%"}, {"measurement": "viability, T/C", "setting": "[4]", "value": 80.7, "unit": "%"}, {"measurement": "viability, T/C", "setting": "second compound 0.1 µM, first compound 0.316 µM", "value": 78, "unit": "%"}, {"measurement": "viability, T/C", "setting": "second compound 0.1 µM, first compound 1 µM", "value": 85, "unit": "%"}, {"measurement": "viability, T/C", "setting": "second compound 0.1 µM, first compound 3.16 µM", "value": 70.6, "unit": "%"}, {"measurement": "viability, T/C", "setting": "second compound 0.1 µM, first compound 10 µM", "value": 66.7, "unit": "%"}, {"measurement": "viability, T/C", "setting": "[5]", "value": 67, "unit": "%"}, {"measurement": "viability, T/C", "setting": "[6]", "value": 72.3, "unit": "%"}, {"measurement": "viability, T/C", "setting": "second compound 0.316 µM, first compound 0.316 µM", "value": 63.7, "unit": "%"}, {"measurement": "viability, T/C", "setting": "second compound 0.316 µM, first compound 1 µM", "value": 62, "unit": "%"}, {"measurement": "viability, T/C", "setting": "second compound 0.316 µM, first compound 3.16 µM", "value": 66.8, "unit": "%"}, {"measurement": "viability, T/C", "setting": "second compound 0.316 µM, first compound 10 µM", "value": 59.4, "unit": "%"}, {"measurement": "viability, T/C", "setting": "[7]", "value": 63.2, "unit": "%"}, {"measurement": "viability, T/C", "setting": "[8]", "value": 61.9, "unit": "%"}, {"measurement": "viability, T/C", "setting": "second compound 1 µM, first compound 0.316 µM", "value": 58.8, "unit": "%"}, {"measurement": "viability, T/C", "setting": "second compound 1 µM, first compound 1 µM", "value": 57.3, "unit": "%"}, {"measurement": "viability, T/C", "setting": "second compound 1 µM, first compound 3.16 µM", "value": 62.4, "unit": "%"}, {"measurement": "viability, T/C", "setting": "second compound 1 µM, first compound 10 µM", "value": 39.5, "unit": "%"}]}
{"smiles": "Cn1ncnc1[C@H]1c2n[nH]c(=O)c3cc(F)cc(c23)N[C@@H]1c1ccc(F)cc1", "note": "+ CC(Nc1ncnc2nc[nH]c12)c1cc2cccc(Cl)c2c(=O)n1-c1ccccc1", "values": [{"measurement": "IC50", "setting": "second compound 0.0316 µM", "value": "> 0.1", "unit": "µM"}, {"measurement": "IC50", "setting": "second compound 0.1 µM", "value": "> 0.1", "unit": "µM"}, {"measurement": "IC50", "setting": "second compound 0.316 µM", "value": "> 0.1", "unit": "µM"}, {"measurement": "IC50", "setting": "second compound 1 µM", "value": "> 0.1", "unit": "µM"}, {"measurement": "IC50", "setting": "second compound 3.16 µM", "value": "> 0.1", "unit": "µM"}, {"measurement": "IC50", "setting": "second compound 10 µM", "value": "> 0.1", "unit": "µM"}, {"measurement": "viability, T/C", "setting": "second compound 0.0316 µM, first compound 0.000316 µM", "value": 94.1, "unit": "%"}, {"measurement": "viability, T/C", "setting": "second compound 0.0316 µM, first compound 0.001 µM", "value": 94.3, "unit": "%"}, {"measurement": "viability, T/C", "setting": "second compound 0.0316 µM, first compound 0.00316 µM", "value": 87.4, "unit": "%"}, {"measurement": "viability, T/C", "setting": "second compound 0.0316 µM, first compound 0.01 µM", "value": 90.7, "unit": "%"}, {"measurement": "viability, T/C", "setting": "[1]", "value": 107, "unit": "%"}, {"measurement": "viability, T/C", "setting": "[2]", "value": 96.8, "unit": "%"}, {"measurement": "viability, T/C", "setting": "second compound 0.1 µM, first compound 0.000316 µM", "value": 96.5, "unit": "%"}, {"measurement": "viability, T/C", "setting": "second compound 0.1 µM, first compound 0.001 µM", "value": 87.5, "unit": "%"}, {"measurement": "viability, T/C", "setting": "second compound 0.1 µM, first compound 0.00316 µM", "value": 96.8, "unit": "%"}, {"measurement": "viability, T/C", "setting": "second compound 0.1 µM, first compound 0.01 µM", "value": 91.6, "unit": "%"}, {"measurement": "viability, T/C", "setting": "[3]", "value": 95.7, "unit": "%"}, {"measurement": "viability, T/C", "setting": "[4]", "value": 88.9, "unit": "%"}, {"measurement": "viability, T/C", "setting": "second compound 0.316 µM, first compound 0.000316 µM", "value": 91, "unit": "%"}, {"measurement": "viability, T/C", "setting": "second compound 0.316 µM, first compound 0.001 µM", "value": 85.8, "unit": "%"}, {"measurement": "viability, T/C", "setting": "second compound 0.316 µM, first compound 0.00316 µM", "value": 98.9, "unit": "%"}, {"measurement": "viability, T/C", "setting": "second compound 0.316 µM, first compound 0.01 µM", "value": 99.5, "unit": "%"}, {"measurement": "viability, T/C", "setting": "[5]", "value": 102, "unit": "%"}, {"measurement": "viability, T/C", "setting": "[6]", "value": 106, "unit": "%"}, {"measurement": "viability, T/C", "setting": "second compound 1 µM, first compound 0.000316 µM", "value": 85.8, "unit": "%"}, {"measurement": "viability, T/C", "setting": "second compound 1 µM, first compound 0.001 µM", "value": 103, "unit": "%"}, {"measurement": "viability, T/C", "setting": "second compound 1 µM, first compound 0.00316 µM", "value": 104, "unit": "%"}, {"measurement": "viability, T/C", "setting": "second compound 1 µM, first compound 0.01 µM", "value": 103, "unit": "%"}, {"measurement": "viability, T/C", "setting": "[7]", "value": 112, "unit": "%"}, {"measurement": "viability, T/C", "setting": "[8]", "value": 92.7, "unit": "%"}, {"measurement": "viability, T/C", "setting": "second compound 3.16 µM, first compound 0.000316 µM", "value": 89.7, "unit": "%"}, {"measurement": "viability, T/C", "setting": "second compound 3.16 µM, first compound 0.001 µM", "value": 86, "unit": "%"}, {"measurement": "viability, T/C", "setting": "second compound 3.16 µM, first compound 0.00316 µM", "value": 91, "unit": "%"}, {"measurement": "viability, T/C", "setting": "second compound 3.16 µM, first compound 0.01 µM", "value": 80.7, "unit": "%"}, {"measurement": "viability, T/C", "setting": "second compound 3.16 µM, first compound 0.0316 µM", "value": 90.1, "unit": "%"}, {"measurement": "viability, T/C", "setting": "second compound 3.16 µM, first compound 0.1 µM", "value": 89.8, "unit": "%"}, {"measurement": "viability, T/C", "setting": "second compound 10 µM, first compound 0.000316 µM", "value": 97, "unit": "%"}, {"measurement": "viability, T/C", "setting": "second compound 10 µM, first compound 0.001 µM", "value": 85, "unit": "%"}, {"measurement": "viability, T/C", "setting": "second compound 10 µM, first compound 0.00316 µM", "value": 85.4, "unit": "%"}, {"measurement": "viability, T/C", "setting": "second compound 10 µM, first compound 0.01 µM", "value": 90.7, "unit": "%"}, {"measurement": "viability, T/C", "setting": "second compound 10 µM, first compound 0.0316 µM", "value": 95.2, "unit": "%"}, {"measurement": "viability, T/C", "setting": "second compound 10 µM, first compound 0.1 µM", "value": 83.7, "unit": "%"}]}
